Measurements: patent US20200255478A1, “NOVEL COMPOUNDS ACTIVATING THE NRF2 PATHWAY” (Almirall, S.A., priority 2017, published 2020)
Read-outs that look alike come from different tables or passages of the source. Starred links: 1 amine or outer side, 2 acyl side, 3 side chain; linkers in the order of their positions; H or OH if unused. Positions of bridges follow the written chain, without caps; N, C: chain ends. Non-standard residues stand in square brackets, D forms with d. Residues, ends and D or L forms follow the SMILES beside them. *: point of attachment. X1 = O=C([C@@H]1C[C@H](N[*:3])CN1[*:1])[*:2]; oXylylene = c1ccc(C[*:2])c(C[*:1])c1; Stearoyl = CCCCCCCCCCCCCCCCCC(=O)*

Target: Keap1-Maltose Binding Protein (MBP tag) (Homo sapiens, UniProt Q14145)
Sequence (Q14145 whole entry): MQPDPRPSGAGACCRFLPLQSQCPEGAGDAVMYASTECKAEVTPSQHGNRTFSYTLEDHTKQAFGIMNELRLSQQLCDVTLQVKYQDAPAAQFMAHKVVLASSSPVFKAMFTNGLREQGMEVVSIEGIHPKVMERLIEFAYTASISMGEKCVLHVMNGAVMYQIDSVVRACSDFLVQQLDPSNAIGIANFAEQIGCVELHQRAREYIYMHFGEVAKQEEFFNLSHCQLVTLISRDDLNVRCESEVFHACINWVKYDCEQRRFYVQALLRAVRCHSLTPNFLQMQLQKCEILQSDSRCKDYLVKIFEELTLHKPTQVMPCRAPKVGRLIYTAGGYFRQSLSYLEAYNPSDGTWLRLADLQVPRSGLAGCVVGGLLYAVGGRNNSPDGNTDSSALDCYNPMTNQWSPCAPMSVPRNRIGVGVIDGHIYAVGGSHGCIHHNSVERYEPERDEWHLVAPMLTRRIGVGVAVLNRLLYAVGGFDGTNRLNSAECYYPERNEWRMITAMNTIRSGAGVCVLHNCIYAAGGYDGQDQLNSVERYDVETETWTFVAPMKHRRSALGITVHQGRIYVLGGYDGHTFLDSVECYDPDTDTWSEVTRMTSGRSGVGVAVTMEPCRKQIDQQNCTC
Assay: Nrf2-Keap1 HTRF (TR-FRET) binding assay: displacement of biotinylated ETGE peptide from Keap1-MBP
[1] = HTRF (TR-FRET), displacement of ETGE-biotin from Keap1-MBP, values banded into grades, read-out: Binding (IC50) ETGE-Keap1

Compound | IC50 [1] | IC50
CC(C)C[C@H](NC(=O)[C@@H]1CSCc2cc3ccccc3cc2CSC[C@H](NC(=O)[C@H](CCC(N)=O)NC(=O)[C@@H](N)CC(C)C)C(=O)N[C@@H](CC(=O)O)C(=O)N2CCC[C@H]2C(=O)N[C@@H](CCC(=O)O)C(=O)N[C@@H]([C@@H](C)O)C(=O)NCC(=O)N[C@@H](CCC(=O)O)C(=O)N1)C(=O)N1CCC[C@H]1C(=O)NCCC(=O)N[C@@H](CCCNC(=N)N)C(=O)N[C@@H](CCCNC(=N)N)C(=O)N[C@@H](CCCNC(=N)N)C(=O)N[C@@H](CCCNC(=N)N)C(=O)N[C@@H](CCCNC(=N)N)C(=O)N[C@@H](CCCNC(=N)N)C(=O)N[C@@H](CCCNC(=N)N)C(=O)N[C@@H](CCCNC(=N)N)C(=O)N[C@@H](CCCNC(=N)N)C(=O)N[C@@H](CCCNC(=N)N)C(N)=O [Example 69, {[H-Leu-G1n-Cys(&^1)-Asp-Pro-Glu-Thr-Gly-Glu-Cys(&^2)-Leu-Pro-βAla-Arg10-NH2][&^1(naphthalene)2,3-diyldimethylene&^2]}] | 1 to 100 nM | –
CCCCCCCCCCCCCCCCCC(=O)N[C@H]1C[C@H]2C(=O)N[C@@H](CCC(N)=O)C(=O)N[C@H]3CSCc4ccccc4CSC[C@H](NC(=O)[C@H](CCC(=O)O)NC(=O)CNC(=O)[C@H]([C@@H](C)O)NC(=O)[C@H](CCC(=O)O)NC(=O)[C@H](CCCNC(=N)N)NC(=O)[C@H](CC(=O)O)NC3=O)C(=O)N[C@@H](CC(C)C)C(=O)N3CCC[C@@H]3C(=O)N2C1 [Example 70, {[&^1Pro((4S)-NH-Stearyl)-Gln-Cys(&^2)-Asp-Arg-Glu-Thr-Gly-Glu-Cys(&^3)-Leu-D-Pro&^1][&^2(1,2-phenylenediyl)dimethylene&^2]}] (cyclo(CDRETGECL[dP][X1](Stearoyl)Q); linker 1-8 via oXylylene) | < 1 nM | –
CC(C)C[C@H](NC(=O)[C@@H]1CSCc2ccccc2CSC[C@H](NC(=O)[C@H](CCC(N)=O)NC(=O)[C@@H](N)CC(C)C)C(=O)N[C@@H](CC(=O)O)C(=O)N[C@@H](Cc2ccc(F)cc2)C(=O)N[C@@H](CCC(=O)O)C(=O)N[C@@H]([C@@H](C)O)C(=O)NCC(=O)N[C@@H](CCC(=O)O)C(=O)N1)C(=O)N1CCC[C@H]1C(=O)NCCC(=O)N[C@@H](CCCNC(=N)N)C(=O)N[C@@H](CCCCN)C(=O)N[C@@H](CCCCN)C(=O)N[C@@H](CCCNC(=N)N)C(=O)N[C@@H](CCCNC(=N)N)C(=O)N[C@@H](CCC(N)=O)C(=O)N[C@@H](CCCNC(=N)N)C(=O)N[C@@H](CCCNC(=N)N)C(=O)N[C@@H](CCCNC(=N)N)C(N)=O [Example 71] | 1 to 100 nM | –
CCCCCCCCCCCCCCCCCC(=O)N[C@H]1C[C@H]2C(=O)N[C@@H](CCC(N)=O)C(=O)N[C@H]3CSCc4ccccc4CSC[C@H](NC(=O)[C@H](CCC(=O)O)NC(=O)CNC(=O)[C@H]([C@@H](C)O)NC(=O)[C@H](CCC(=O)O)NC(=O)[C@@H]4C[C@H](F)CN4C(=O)[C@H](CC(=O)O)NC3=O)C(=O)N[C@@H](CC(C)C)C(=O)N3CCC[C@@H]3C(=O)N2C1 [Example 72, {[&^1Pro((4S)-NH-Stearyl)-Gln-Cys(&^2)-Asp-Pro((4S)-F)-Glu-Thr-Gly-Glu-Cys(&^3)-Leu-D-Pro&^1][&^2(1,2-phenylenediyl)dimethylene&^2]}] | – | 1 to 100 nM
CCCCCCCCCCCCCCCCCC(=O)N[C@H]1C[C@H]2C(=O)N[C@@H](CCC(N)=O)C(=O)N[C@H]3CSCc4ccccc4CSC[C@H](NC(=O)[C@H](CCC(=O)O)NC(=O)CNC(=O)[C@H]([C@@H](C)O)NC(=O)[C@H](CCC(=O)O)NC(=O)[C@@H]4C[C@H](N)CN4C(=O)[C@H](CC(=O)O)NC3=O)C(=O)N[C@@H](CC(C)C)C(=O)N3CCC[C@@H]3C(=O)N2C1 [Example 73, {[&^1Pro((4S)-NH-Stearyl)-Gln-Cys(&^2)-Asp-Pro((4S)-NH2)-Glu-Thr-Gly-Glu-Cys(&^3)-Leu-D-Pro&^1][&^2(1,2-phenylenediyl)dimethylene&^3]}] | – | 1 to 100 nM
